Test results as given in US5110925A, “Pyridazinone derivatives” (Nippon Soda Co., Ltd., priority 1988, dated 1992).
≈ marks a conversion by molar mass, not a printed value. Where two headings read alike, the source gives them in different places.

Assays:
guinea pig left atria = assay: Cardiotonic Action: Electrically Stimulating Isolated Guinea Pig Left Atria; set-up: species or system guinea pig (male Hartley); conditions: Cavia porcellus, read-out: contractility of guinea pig left atria EC50
Description: Male Hartley guinea pigs weighing 350-500 g were used.
The hearts were excised from the animals. The left atria were dissected from the hearts and mounted in an organ bath.
The atria were stimulated by square wave pulses of 3 msec duration and a voltage ranging from 1.2-fold to 1.5-fold of the threshold at a frequency of 60/min with an electric stimulator.
Resting tension was adjusted to 0.5 g and contraction was recorded on the Polygraph Systems with a force-displacement transducer.
All preparations were allowed to equilibrate with the bath medium for 90 to 120 min.

Anesthetized Dogs = assay: Cardiotonic Action: Anesthetized Dogs; format: in vivo, dog (adult mongrel); conditions: for ED50: Canis lupus familiaris, iv, read-out: LVdp/dtmax ED50; for % Changes in Heart rate / % Changes in Blood pressure: i.v.; for % Changes in Blood pressure: femoral arterial pressure
Description: Adult mongrel dogs of either sex weighing 8 to 15 kg were used.
The animals were anesthetized with sodium pentobarbital (30 mg/kg, i.v.) and maintained by an intravenous infusion of the anesthetic at a rate of 4 mg/kg per hour.
A cuffed endotracheal tube was inserted and an artificial respirator installed. The animals were ventilated with room air in a tidal volume of 20 ml/kg at a rate of 20 brearhs per minute.
Cannulae were inserted into the femoral vein for a falling drop of a physiological saline or for an infusion of the anesthetic, and into the femoral artery for measuring arterial blood pressure with a pressure transducer. Heart rate was recorded with a heart rate counter triggered by the R wave of the electrocardiogram (ECG).
ECG in standard lead II was monitored with a bioelectric amplifier.
Left ventricular pressure was measured with a catheter tip pressure transducer inserted via the right carotid artery into the left ventricle. Left ventricular dp/dtmax was obtained by an electric differentiator.
The compounds were injected through the cannula in the femoral vein at a dose of 0.001-0.3 mg/0.1 ml/kg.

PDE-I = assay: Inhibition of Phosphodiesterase PDE-I; format: biochemical, guinea pig (left ventricular muscles); conditions: 1 mM 3H-cAMP substrate
Source text: (§1) The preparation of different forms of cyclic nucleotide phosphodiesterase from guinea pig left ventricular muscles was done by following the procedure of Weishaar, et al. (R. Weishaar, et al., Biochemical Pharmacology, 35, 787-800, 1986) with the minor modified method of Thompson, et al. (W. J. Thompson, et al., Advances in Cyclic Nucleotide Research, 10, 69-92, 1979). Briefly, the three active forms of phosphodiesterase (PDE-I, PDE-II, PDE-III) present in the ventricular muscles were discretely eluted from a DEAE-cellulose column (Whatman, DE-52, .phi. 2.5×20 cm) using a continuous 70-800 mM sodium acetate gradient.
(§2) The phosphodiesterase activity was assayed by minor modifications of the method described by Furutani et al. (Y. Furutani, et al., Journal of Antibiotics, 28, 558-560, 1975). Briefly, 1 mM ^3 H-cAMP was hydrolyzed by the phosphodiesterase and the unhydrolyzed ^3 H-cAMP which was separated from the formed 5'-AMP by a dry alumina (Merck, activity 1, neutral) was counted by a liquid scintillation counter.
(§3) The concentrations causing a 50% inhibition of the phosphodiesterase activity (IC50) were calculated from the concentration-inhibition curves.

PDE-III = biological target: T1, PDE-III (Cavia porcellus, UniProt H0VIU9); assay: Inhibition of Phosphodiesterase PDE-III; format: biochemical, guinea pig (left ventricular muscles)
T1 construct: different forms of cyclic nucleotide phosphodiesterase from guinea pig left ventricular muscles; from tissue; host or cells: guinea pig left ventricular muscle, DEAE-cellulose fraction
T1 sequence (H0VIU9 1-1132): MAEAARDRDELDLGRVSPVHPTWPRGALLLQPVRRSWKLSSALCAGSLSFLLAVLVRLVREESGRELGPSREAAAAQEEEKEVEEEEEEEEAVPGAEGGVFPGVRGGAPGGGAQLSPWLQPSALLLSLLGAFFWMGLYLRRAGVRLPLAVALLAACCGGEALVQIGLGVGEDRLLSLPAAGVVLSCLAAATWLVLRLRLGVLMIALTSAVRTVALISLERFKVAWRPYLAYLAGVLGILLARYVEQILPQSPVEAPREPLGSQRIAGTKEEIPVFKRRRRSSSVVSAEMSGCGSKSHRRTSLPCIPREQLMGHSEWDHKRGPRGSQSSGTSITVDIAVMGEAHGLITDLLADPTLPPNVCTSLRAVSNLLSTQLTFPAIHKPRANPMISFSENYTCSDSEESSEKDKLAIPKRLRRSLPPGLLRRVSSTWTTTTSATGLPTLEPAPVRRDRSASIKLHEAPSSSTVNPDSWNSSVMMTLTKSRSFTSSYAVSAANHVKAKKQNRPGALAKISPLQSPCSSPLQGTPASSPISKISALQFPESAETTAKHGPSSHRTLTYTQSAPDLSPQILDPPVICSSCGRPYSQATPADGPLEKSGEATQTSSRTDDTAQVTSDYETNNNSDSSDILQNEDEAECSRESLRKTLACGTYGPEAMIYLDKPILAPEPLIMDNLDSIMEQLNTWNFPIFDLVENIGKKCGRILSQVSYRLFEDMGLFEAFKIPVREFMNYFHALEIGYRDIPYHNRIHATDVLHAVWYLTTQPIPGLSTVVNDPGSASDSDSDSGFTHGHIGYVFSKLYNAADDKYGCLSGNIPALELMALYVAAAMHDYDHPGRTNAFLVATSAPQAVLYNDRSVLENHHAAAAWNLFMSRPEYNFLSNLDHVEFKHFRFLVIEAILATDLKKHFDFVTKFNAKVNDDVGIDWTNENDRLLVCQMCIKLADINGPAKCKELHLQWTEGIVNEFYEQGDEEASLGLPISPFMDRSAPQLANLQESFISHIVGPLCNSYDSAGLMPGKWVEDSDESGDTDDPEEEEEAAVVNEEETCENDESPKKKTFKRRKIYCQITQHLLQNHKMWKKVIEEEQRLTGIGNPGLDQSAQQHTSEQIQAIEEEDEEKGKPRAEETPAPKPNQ
Source text: as §1, §2, §3

mice = assay: Acute Toxicity in mice, oral single dose; format: in vivo, mouse (male); conditions: male mice, 300 mg/kg, p.o., 7 days observation
Source text: The acute toxicity of the test compounds was studied in male mice after oral administration of a single dose.

PDE-II = biological target: T2, PDE-II (Cavia porcellus, UniProt A0A286XUV5); assay: Inhibition of Phosphodiesterase PDE-II; format: biochemical, guinea pig (left ventricular muscles); conditions: 1 mM 3H-cAMP substrate
T2 construct: different forms of cyclic nucleotide phosphodiesterase from guinea pig left ventricular muscles; from tissue; host or cells: guinea pig left ventricular muscle, DEAE-cellulose fraction
T2 sequence (A0A286XUV5 22-936): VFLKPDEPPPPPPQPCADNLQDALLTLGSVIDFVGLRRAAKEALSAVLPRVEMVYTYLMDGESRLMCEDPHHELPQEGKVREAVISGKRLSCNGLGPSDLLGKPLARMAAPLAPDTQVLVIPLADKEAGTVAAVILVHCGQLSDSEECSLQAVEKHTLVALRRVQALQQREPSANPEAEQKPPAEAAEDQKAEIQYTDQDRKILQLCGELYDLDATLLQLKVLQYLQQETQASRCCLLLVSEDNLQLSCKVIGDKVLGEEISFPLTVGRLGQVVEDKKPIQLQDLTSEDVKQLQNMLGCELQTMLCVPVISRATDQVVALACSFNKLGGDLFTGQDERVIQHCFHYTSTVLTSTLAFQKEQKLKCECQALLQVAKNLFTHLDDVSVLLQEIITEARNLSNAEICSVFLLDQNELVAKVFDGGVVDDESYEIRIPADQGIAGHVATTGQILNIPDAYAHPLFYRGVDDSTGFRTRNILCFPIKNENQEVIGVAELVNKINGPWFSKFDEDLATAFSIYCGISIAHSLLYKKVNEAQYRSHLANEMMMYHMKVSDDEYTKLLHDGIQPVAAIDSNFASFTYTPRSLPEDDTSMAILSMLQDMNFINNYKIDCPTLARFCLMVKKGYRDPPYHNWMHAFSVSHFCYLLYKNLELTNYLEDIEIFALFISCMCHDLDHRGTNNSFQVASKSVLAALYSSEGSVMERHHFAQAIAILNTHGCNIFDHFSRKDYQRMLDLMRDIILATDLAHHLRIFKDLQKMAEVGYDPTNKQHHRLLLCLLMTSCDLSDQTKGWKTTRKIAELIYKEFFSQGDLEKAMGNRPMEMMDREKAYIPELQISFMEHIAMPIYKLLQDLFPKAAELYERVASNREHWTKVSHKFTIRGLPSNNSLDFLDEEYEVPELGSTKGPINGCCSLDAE
Source text: as §1, §2, §3

[1] = concentration causing a 50% increase in contractility, cumulative addition, 30° C.
[2] = dose producing a 50% increase in LVdp/dtmax, anesthetized dogs
[3] = 1 mM 3H-cAMP substrate, read-out: phosphodiesterase inhibition IC50 PDE-III

Row | Structure (SMILES) | IC50 (PDE-I) | IC50 (PDE-III; [3]) | IC50 (PDE-II) | EC50 (guinea pig left atria; [1]) | ED50 (Anesthetized Dogs; [2]) | % Changes in Heart rate (Anesthetized Dogs; anesthetized dogs) | % Changes in Blood pressure (Anesthetized Dogs; anesthetized dogs) | mortality (number of dead animals/number of treated animals) (mice) | EC50 (guinea pig left atria) | ED50 (Anesthetized Dogs) | IC50 (PDE-III)
1 | O=C1CCC(c2ccc(-n3ccnc3)cc2)=NN1 [CI-914, reference compound] | > 1000 µM | 5.7 µM |  | 1.8 µg/mL (≈ 7.49 µM) | 0.095 mg/kg | 9% | -10% | 2/3 |  |  | 
2 | CC1=C(Nc2ccc(C3=NNC(=O)CC3)cc2)CCC1=O [Compound 4, 4,5-Dihydro-6-(4-((2-methyl-3-oxo-1-cyclopentenyl)-amino)phenyl)-3(2H)-pyridazinone] | 610 µM | 2 µM | 330 µM | 0.24 µg/mL (≈ 0.847 µM) | 0.012 mg/kg | 5% | -2% | 1/3 |  |  | 
3 | CC1=C(Nc2ccc(C3=NNC(=O)CC3C)cc2)CCC1=O (stereo not drawn) [Compound 15, 4,5-Dihydro-6-(4-((2-methyl-3-oxo-1-cyclopentenyl)amino)phenyl)-5-methyl-3(2H)-pyridazinone] | > 1000 µM | 0.59 µM | 940 µM | 0.054 µg/mL (≈ 0.182 µM) | 0.012 mg/kg | 19% | -18% |  |  |  | 
4 | CC1=C(Nc2ccc3c(c2)OCC2CC(=O)NN=C32)CCC1=O (stereo not drawn) [Compound 26] | > 1000 µM | 2.3 µM | 100 µM |  | 0.03 mg/kg | 8% | -6% |  |  |  | 
5 | O=C1C=C(Nc2ccc(C3=NNC(=O)CC3)cc2)CC1 [Compound 2, 4,5-Dihydro-6-((4-(3-oxo-1-cyclopentenyl)amino)phenyl)-3(2H)-pyridazinone] | 1000 µM | 1.2 µM | 235 µM | 0.11 µg/mL (≈ 0.408 µM) | 0.006 mg/kg | 6% | -2% | 0/3 |  |  | 
6 | Cc1[nH]c(=O)c(C#N)cc1-c1ccncc1 [Milrinone, milrinone, reference compound] | 151 µM |  | 142 µM |  |  | 6% | -6% | 3/3 | 0.43 µg/mL (≈ 2.04 µM) | 0.023 mg/kg | 2.8 µM

Further lines, with some results ahead:

Row | IC50 (PDE-I) | IC50 (PDE-III; [3]) | IC50 (PDE-II) | Structure (SMILES) | EC50 (guinea pig left atria; [1]) | ED50 (Anesthetized Dogs; [2]) | % Changes in Heart rate (Anesthetized Dogs; anesthetized dogs) | % Changes in Blood pressure (Anesthetized Dogs; anesthetized dogs) | mortality (number of dead animals/number of treated animals) (mice) | EC50 (guinea pig left atria) | ED50 (Anesthetized Dogs) | IC50 (PDE-III)
7 | > 100 µM | 1.6 µM | 49 µM | O=C1C=C(Nc2ccc3c(c2)CCC2CC(=O)NN=C32)CC1 (stereo not drawn) [Compound 35] |  | 0.023 mg/kg | 3% | -4% |  |  |  | 
8 | > 100 µM | 4.1 µM | 100 µM | O=C1C=C(Nc2ccc3c(c2)OCC2CC(=O)NN=C32)CC1 (stereo not drawn) [Compound 24, 8-(3-oxo-1-cyclopentenylamino)-3,4,4a,5-tetrahydro-2H-(1)benzopyrano(4,3-c)-pyridazinon-3-one] |  | 0.022 mg/kg | 4% | -7% |  |  |  | 
9 | 310 µM | 0.88 µM | 260 µM | CC1CC(=O)NN=C1c1ccc(NC2=CC(=O)CC2)cc1 (stereo not drawn) [Compound 14, 4,5-Dihydro-6-(4-((3-oxo-1-cyclopentenyl)amino)phenyl)-5-methyl-3(2H)-pyridazinone] | 0.12 µg/mL (≈ 0.424 µM) | 0.008 mg/kg | 13% | -11% |  |  |  | 
